Common to all, as to assay type: cell-based, human
In assay [1] the test system is MCF-7/DOX cells. The assay can be described thus: Flow cytometry of the cell cycle, MCF-7/DOX. Particulars: 4 μM, 24 h. As to the method: (§1) MCF-7 or MCF-7/DOX cells were plated in 6-well culture plates (1.5 × 10^5 cells per well). After incubation overnight, various concentrations of 6b or curcumin were added and cells were incubated for 24 h. Cells were harvested, washed with cold PBS, and incubated with pre-cooled 70% ethanol for a minimum of 4 h at 4 °C to fix them. The cells were then centrifuged, carefully aspirated from the supernatant, and re-suspended in a propidium iodide (final concentration, 40 μg/ml) and RNase A (final concentration, 100 μg/ml) solution at a final cell density of 0.5 × 10^6 cells/ml. The suspension was incubated at 37 °C for 30 min prior to analysis by flow cytometry.
For orientation: A flow cytometer gives signals particle by particle.

Assay [2] deals with MCF-7/DOX cells. Put plainly: ROS detection by DCFH-DA flow cytometry, MCF-7/DOX. Particulars: 4 μM, 24 h. As to the method: (§2) MCF-7 or MCF-7/DOX cells were seeded at a density of 3 × 10^5 cells per well of a 6-well plate and treated with various concentrations of 6b (0, 1, 2, 4 μM) or 4 μM curcumin for 24 h. DCFH-DA was dissolved in serum-free medium and diluted to a final concentration of 10 μM. After treatment with 6b, the growth media was replaced with serum-free medium containing the probe. After incubation for 20 min at 37 °C, cells were washed with serum-free medium twice, digested by trypsin and resuspended in pre-warmed PBS buffer. The samples were then subjected to a flow cytometry assay using a BD FACSCalibur flow cytometer (Becton & Dickinson Company, Franklin Lakes, NJ).

The subject of assay [3] is Cyclin D1 gene. The assay can be described thus: Quantitative real-time RT-PCR of Cyclin D1. The settings on record: MCF-7 and MCF-7/DOX cells, 24 h. As to the method:
(§3) Levels of mRNA expression were analyzed with the RT-PCR assay, with total RNA isolated from MCF-7 or MCF-7/DOX cells using an EASYspin Plus tissue/cell RNA extraction kit (Aidlab Biotechnologies Co. Ltd). RNA was quantified by measuring absorption at 260 nm and 1 μg of RNA was reverse transcribed to cDNA using the Transcriptor First Strand cDNA Synthesis Kit (Roche Diagnostics, Basel, Switzerland). Thermal cycling conditions included 95 °C initial denaturation for 5 min, followed by 40 cycles of denaturation (10 s at 95 °C), annealing (15 s at 60 °C) and extension (15 s at 72 °C with a single fluorescence measurement), a melt curve program (60–95 °C with a 0.11 °C/s heat increase and continuous fluorescence measurement) and a cooling step to 40 °C. The Δ cycle threshold method was used for the calculation of relative differences in mRNA abundance with a LightCycler 480 (Roche Molecular Biochemicals, Mannheim, Germany). The data were normalized to the expression of GAPDH. The results were expressed as fold-changes. The RT-PCR primers that were used in this study are listed in the supporting information.
On the technique in general: Real-time PCR tracks product formation cycle by cycle.

Assay [4] has as its system MCF-7 cells. The assay can be described thus: ROS detection by DCFH-DA flow cytometry, MCF-7. Particulars: MCF-7, 4 μM, 24 h. As to the method:
as §2

The test system of assay [5] is MCF-7/DOX cells. Put plainly: MTT anti-proliferative assay, MCF-7/DOX. Particulars: Homo sapiens, MCF7-DOX; MTT, 48 h; read-out: MCF-7/DOX IC50 ± SD. How it is done: (§4) All cell lines were purchased from Cell Bank of Shanghai Institute of Biochemistry and Cell Biology, Chinese Academy of Sciences (Shanghai, China). Human breast carcinoma cells (MCF-7 and MCF-7/DOX), breast epithelial cells (MCF-10A) and normal human liver cells (LO2) were maintained in RPMI-1640 medium. All cells were supplemented with 12% fetal bovine serum containing 50 μg/ml penicillin and 50 μg/ml streptomycin. Cells were grown to 80% confluency in a tissue culture flask at 37 °C in a humidified atmosphere containing 5% CO2, and then were trypsinized with 1 × Trypsin-Versene and split. The MCF-7/DOX cell line we used was established from its parental cell line MCF-7 cell by gradually increasing the concentration of DOX to which the cells were exposed in a stepwise manner over a period of 8 months. […] The cells were incubated in drug-free medium for at least 1 week before use.
(§5) Cells (MCF-7, MCF-7/DOX, MCF-10A, LO2) were seeded in 96-well plates at a density of 3,000–6,000 cells per well. The cells were incubated overnight (16 h) in a humidified 5% CO2 incubator at 37 °C. After media removal, different concentrations of test compounds were added in triplicate to the plates in 200 μL of fresh media and were incubated with the cells at 37 °C for 48 h. […] Cell viability was evaluated using 3-(4, 5-dimethylthiazolyl)-2,5-diphenyltetrazoliumbromide (MTT). The absorbance was read by an ELISA reader (SpectraMax Plus384, Molecular Devices, Sunnyvale, CA) at a test wavelength of 570 nm and a reference wavelength of 630 nm. Cell viability was calculated using the following formula: […]
(Formazan colour is commonly taken as a measure of viable cells.)

Assay [6] has as its system Bcl-2 gene. Put plainly: Quantitative real-time RT-PCR of Bcl-2. Particulars: MCF-7 and MCF-7/DOX cells, 24 h. How it is done: as §3
Assay [7] has as its system MCF-7 cells. The assay can be described thus: MTT anti-proliferative assay, MCF-7. Particulars: Homo sapiens, MCF7, 48 h, read-out: MCF-7 IC50 ± SD. How it is done:
as §4, §5

Assay [8] deals with MCF-7 cells. Put plainly: Flow cytometry of the cell cycle, MCF-7. The settings on record: MCF-7, 4 μM, 24 h. As to the method:
as §1

For assay [9], the system named is MCF-7 cells. Put plainly: Annexin V-APC/7-AAD flow cytometry of apoptosis, MCF-7. The settings on record: 4 μM, 24 h. How it is done:
(§6) MCF-7, MCF-7/DOX or MCF-10A cells, at a density of 2.5 × 10^5 cells per well, were cultured in regular growth medium in 6-well plates for 24 h and treated in duplicate with different concentrations of 6b or curcumin for 24 h. The cells were harvested, washed and stained with 5 μL of Annexin V-APC and 5 μL of 7-AAD at room temperature for 15 min. Cells were then analyzed by flow cytometry (488 nm excitation and 600 nm emission filters) using a BD FACSCalibur flow cytometer (Becton & Dickinson Company, Franklin Lakes, NJ).

The subject of assay [10] is Bax gene. The assay can be described thus: Quantitative real-time RT-PCR of Bax. Particulars: MCF-7 and MCF-7/DOX cells, 24 h. How it is done:
as §3

Assay [11] concerns MCF-7/DOX cells. The assay can be described thus: Annexin V-APC/7-AAD flow cytometry of apoptosis, MCF-7/DOX. The settings on record: 4 μM, 24 h. As to the method:
as §6

Consider `COc1cc(/C=C/C(=O)CC(=O)/C=C/c2ccc(O)c(OC)c2)ccc1O` [curcumin], for which the “effect on the cell cycle” value in assay [1] and in [8] was “little effect” in each case. Besides, the ROS generation entry in assay [2] and in assay [4] was “little effect” throughout. In assay [3], the “Cyclin D1 gene level (in words)” value is “little effect”. Besides, the values for the IC50 in [5] and in [7] were 32.7 ± 4 µM and 37.7 ± 8.2 µM, respectively. Also, the “Bcl-2 gene level (in words)” value in assay [6] was “little effect”. The apoptosis rate entry in assay [9] and in assay [11] was “small effect” each time. The “Bax gene level (in words)” value in assay [10] was “little effect”.

The record behind these values is paper PMC5387716, “Discovery of monocarbonyl curcumin-BTP hybrids as STAT3 inhibitors for drug-sensitive and drug-resistant breast cancer therapy” (Scientific Reports, 2017).
